biological target: farnesyl pyrophosphate synthase (Trypanosoma cruzi); test: Inhibitory concentration against Trypanosoma cruzi farnesyl pyrophosphate synthase (TcFPPS)

Structure (SMILES)	IC50 [µM]
CCCC(N)(P(=O)(O)O)P(=O)(O)O [(1-Amino-1-phosphono-butyl)-phosphonic acid]	30.8
CC(N)(P(=O)(O)O)P(=O)(O)O [(1-Amino-1-phosphono-ethyl)-phosphonic acid]	66.7
CCCCCC(N)(P(=O)(O)O)P(=O)(O)O [(1-Amino-1-phosphono-hexyl)-phosphonic acid]	0.382
CCCCCCC(N)(P(=O)(O)O)P(=O)(O)O [(1-Amino-1-phosphono-heptyl)-phosphonic acid]	3.57
CCCCC(N)(P(=O)(O)O)P(=O)(O)O [(1-Amino-1-phosphono-pentyl)-phosphonic acid]	3.91
CCC(N)(P(=O)(O)O)P(=O)(O)O [(1-Amino-1-phosphono-propyl)-phosphonic acid]	150

From BindingDB's records for doi:10.1016/j.bmcl.2005.07.060 (Universidad De Buenos Aires, 2005)
